Reference: patent US7291621B2, “Substituted biaryl amides C5a receptor modulators” (Neurogen Corporation, priority 2002, dated 2007)
Read-outs that look alike come from different tables or passages of the source.

Molecular target: T1, C5a receptor (Homo sapiens, UniProt P21730)
T1 construct: endogenous in cells; host or cells: U937 cells differentiated with 1 mM dibutyryl cAMP
T1 sequence (P21730 1-350): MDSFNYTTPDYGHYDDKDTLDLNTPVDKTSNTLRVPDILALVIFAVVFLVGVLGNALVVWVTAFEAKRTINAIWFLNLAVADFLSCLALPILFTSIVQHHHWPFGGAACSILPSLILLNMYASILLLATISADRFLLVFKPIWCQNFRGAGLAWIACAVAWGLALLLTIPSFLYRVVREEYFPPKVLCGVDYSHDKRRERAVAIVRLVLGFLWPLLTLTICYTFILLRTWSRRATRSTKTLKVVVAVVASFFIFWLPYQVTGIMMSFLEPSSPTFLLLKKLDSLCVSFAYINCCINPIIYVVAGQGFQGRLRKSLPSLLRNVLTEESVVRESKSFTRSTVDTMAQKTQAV
Experiment: standard assay of C5a receptor mediated calcium mobilization
Assay type: cell-based
Settings: asterisk = tested in C5a receptor mediated calcium mobilization assay, read-out: Ca2+ Mob.
Method in brief: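 U937 cells differentiated 48 hrs with 1 mM dibutyryl cAMP, loaded with Fluo-3 (10 μg/mL) and read by FLIPR fluorescence (ex 480/em 530). For antagonism, cells preincubated 1 h with 1 μM compound before 0.3 nM human recombinant C5a; activity scored as fold decrease in response versus C5a alone.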

Structure (SMILES)	Ki (Table III)	Ki (Table I)
Cc1ccc2ccccc2c1C(=O)N(CCc1ccccc1)C1Cc2ccccc2C1 [compound 235, 2-Methyl-naphthalene-1-carboxylic acid indan-2-yl-phenethyl-amide]	< 1000 nM	
Cc1ccc(-c2cccc(F)c2C(=O)N(Cc2ccccc2)C2Cc3ccccc3C2)s1 [compound 114, N-benzyl-N-(indan-2-yl)-2-fluoro-6-(5-methylthien-2-yl)benzamide]		< 1000 nM
COc1ccc(-c2ccccc2)c(C(=O)N(Cc2cccc(F)c2)C2Cc3ccccc3C2)c1 [compound 109, N-(indan-2-yl)-N-(3-fluorobenzyl)-4-methoxy-1,1′-biphenyl-2-carboxamide]		< 1000 nM
COc1ccc(-c2ccccc2C(=O)N(Cc2ccccc2)Cc2ccccc2)c(OC)c1 [compound 45, N,N-dibenzyl-2′,4′-dimethoxy-1,1′-biphenyl-2-carboxamide]		< 1000 nM
COc1cccc(-c2ccccc2C(=O)N(Cc2ccccc2)C2Cc3ccccc3C2)c1 [compound 62, N-benzyl-N-(indan-2-yl)-3′-methoxy-1,1′-biphenyl-2-carboxamide]		< 1000 nM
COc1ccc(-c2ccccc2C(=O)N(Cc2ccccc2)Cc2ccccc2)cc1 [compound 44, N,N-dibenzyl-4′-methoxy-1,1′-biphenyl-2-carboxamide]		< 1000 nM
COc1cccc(-c2ccccc2C(=O)N(Cc2cccc(C)c2)C2Cc3ccccc3C2)c1 [compound 98, N-(indan-2-yl)-3′-methoxy-N-(3-methylbenzyl)-1,1′-biphenyl-2-carboxamide]		< 1000 nM
COc1ccc(-c2ccccc2)c(C(=O)N(Cc2ccccc2)C2Cc3ccccc3C2)c1 [compound 66, N-benzyl-N-(indan-2-yl)-4-methoxy-1,1′-biphenyl-2-carboxamide]		< 1000 nM
COc1cccc(CN(C(=O)c2c(C)cccc2-c2ccccc2)C2Cc3ccccc3C2)c1 [compound 127, N-(indan-2-yl)-N-(3-methoxybenzyl)-3-methyl-1,1′-biphenyl-2-carboxamide]		< 1000 nM
O=C(c1ccccc1-c1ccc(Cl)cc1)N(Cc1ccccc1)Cc1ccccc1 [compound 50, N,N-dibenzyl-4′-chloro-1,1′-biphenyl-2-carboxamide]		< 1000 nM
O=C(c1cc(Cl)ccc1-c1ccsc1)N(Cc1ccccc1)C1Cc2ccccc2C1 [compound 119, N-benzyl-5-chloro-N-(indan-2-yl)-2-thien-3-ylbenzamide]		< 1000 nM
Cc1ccccc1-c1ccccc1C(=O)N(Cc1ccccc1)Cc1ccccc1 [compound 53, N,N-dibenzyl-2′-methyl-1,1′-biphenyl-2-carboxamide]		< 1000 nM
Cc1cccc(-c2ccccc2C(=O)N(Cc2ccccc2)Cc2ccccc2)c1 [compound 54, N,N-dibenzyl-3′-methyl-1,1′-biphenyl-2-carboxamide]		< 1000 nM
COc1cccc(CN(C(=O)c2cc(OC)ccc2-c2ccsc2)C2Cc3ccccc3C2)c1 [compound 104, N-(indan-2-yl)-5-methoxy-N-(3-methoxybenzyl)-2-thien-3-ylbenzamide]		< 1000 nM
O=C(c1cc(O)ccc1-c1ccccc1)N(Cc1ccccc1)C1Cc2ccccc2C1 [compound 68, N-benzyl-N-(indan-2-yl)-4-hydroxy-1,1′-biphenyl-2-carboxamide]		< 1000 nM
